Data published in PubChem BioAssay (NCI).
Several values for one entry are separate records, joined by “and”; a condition that tells them apart may be missing. Equal entries are not always repeated.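 Each compound was tested at five concentrations against cells in 96-well plates for 48 hours. Here, GI50 denotes the concentration required for 50% inhibition of growth. The concentration for full growth arrest is given as TGI.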

Key:
Assay in all cases: DTP human tumour cell line panel, 48 h
A549 NSCLC = tested on: A549 NSCLC
BT-549 breast = tested on: BT-549 breast
DU-145 prostate = tested on: DU-145 prostate
HCC-2998 colon = tested on: HCC-2998 colon
NCI-H460 lung = tested on: NCI-H460 lung
PC-3 prostate = tested on: PC-3 prostate
RXF 393 renal = tested on: RXF 393 renal
SK-MEL-5 melanoma = tested on: SK-MEL-5 melanoma
UACC-257 melanoma = tested on: UACC-257 melanoma
T-47D breast = tested on: T-47D breast

Structure (SMILES)	TGI (A549 NSCLC)	TGI (BT-549 breast)	TGI (DU-145 prostate)	TGI (HCC-2998 colon)	TGI (NCI-H460 lung)	TGI (PC-3 prostate)	TGI (RXF 393 renal)	TGI (SK-MEL-5 melanoma)	TGI (UACC-257 melanoma)	TGI (T-47D breast)	GI50 (A549 NSCLC)	GI50 (BT-549 breast)	GI50 (DU-145 prostate)	GI50 (HCC-2998 colon)	GI50 (NCI-H460 lung)	GI50 (RXF 393 renal)	GI50 (SK-MEL-5 melanoma)	GI50 (T-47D breast)	GI50 (UACC-257 melanoma)
NC(N)=N/N=C/c1c(-c2cc([N+](=O)[O-])c(Cl)cc2Cl)nc2n1CCS2	> 100 µM	9.7 µM	87.2 µM	5.4 µM	> 100 µM	> 100 µM	> 100 µM	> 100 µM	54.2 µM	–	–	–	–	–	–	–	–	–	–
O/N=C\C(=Nc1ccc(Cc2ccc(N=C(/C=N\O)NO)cc2)cc1)NO	> 100 µM	–	–	> 100 µM	> 100 µM	–	–	> 100 µM	> 100 µM	–	–	–	–	–	–	–	–	–	–
NS(=O)(=O)c1nnc(NS(=O)(=O)c2ccc([N+](=O)[O-])cc2)s1	> 100 µM	> 100 µM	> 100 µM	> 100 µM	> 100 µM	> 100 µM	> 100 µM	> 100 µM	–	> 100 µM	–	–	–	–	–	–	–	–	–
C/C(O[Si](C(C)C)(C(C)C)C(C)C)=C(\C)C(=O)N(C)c1ccccc1Cl	> 100 µM	> 100 µM	> 100 µM	–	> 100 µM	–	> 100 µM	> 100 µM	> 100 µM	> 100 µM	–	–	–	–	–	–	–	–	–
O=C(c1ccco1)N(C(=S)N1CCN(c2ccccn2)CC1)c1ccccc1	> 100 µM	–	–	–	> 100 µM	–	> 100 µM	> 100 µM	> 100 µM	–	–	–	–	–	–	–	–	–	–
Cc1nc(Nc2ccc(Cl)c(Cl)c2)sc1C(=O)/C=C/c1ccc2c(c1)OCO2	48.5 µM	46.1 µM	–	88.1 µM	> 100 µM	–	29.3 µM	97.4 µM	> 100 µM	> 100 µM	–	–	–	–	–	–	–	–	–
COc1ccccc1C1C(C#N)=C(N)Oc2cc(O)ccc21 (stereo unspecified)	> 100 µM	80.4 µM	94.1 µM	35.5 µM	58.8 µM	–	75.6 µM	71.9 µM	94.6 µM	76.3 µM	26.8 µM	24 µM	26 µM	11.7 µM	20 µM	23.2 µM	22.4 µM	13.9 µM	27.7 µM
COC(=O)CC(C(C(C)=O)C(=O)OCc1ccccc1)N1C(=O)OC(c2ccccc2)C1c1ccccc1 (stereo unspecified)	> 100 µM	–	–	> 100 µM	> 100 µM	–	> 100 µM	> 100 µM	> 100 µM	–	–	–	–	–	–	29.1 µM and 84.9 µM	–	–	23.6 µM and 55.3 µM
COc1ccc(/C(Cl)=C(\C=O)c2ccc(Cl)cc2)cc1OC	> 100 µM	–	–	76.2 µM	> 100 µM	–	20.7 µM	> 100 µM	37.4 µM	–	–	–	–	–	–	–	–	–	–
